Test results: publication PMC6691843, “Seeking new approach for therapeutic treatment of cholera disease via inhibition of bacterial carbonic anhydrases: experimental and theoretical studies for sixteen benzenesulfonamide derivatives” (Journal of Enzyme Inhibition and Medicinal Chemistry, 2019)
Like-named read-outs stand apart in the source and are kept apart here.

Columns and labels:
VchCAγ = VchCAγ (Vibrio cholerae, UniProt Q9KVT1); assay: stopped flow CO2 hydrase assay, VchCAγ; assay type: biochemical
VchCAα = target: T1, VchCAα (Vibrio cholerae serotype O1, UniProt Q9KMP6); assay: stopped flow CO2 hydrase assay, VchCAα; assay type: biochemical; conditions: for Ki: stopped flow CO2 hydrase assay, mean from three different assays
T1 construct: made in house; host or cells: E. coli BL21 DE3

VchCAβ = VchCAβ (Vibrio cholerae, UniProt A0A086SLX8); assay: stopped flow CO2 hydrase assay, VchCAβ; assay type: biochemical; conditions: for inhibitory activity toward VchCAβ (in words): qualitative statement
pathogen = tested on: pathogen; design: method as in PMID 26010545; conditions: cited from earlier work

Sequence of VchCAβ (A0A086SLX8 entry or part of it): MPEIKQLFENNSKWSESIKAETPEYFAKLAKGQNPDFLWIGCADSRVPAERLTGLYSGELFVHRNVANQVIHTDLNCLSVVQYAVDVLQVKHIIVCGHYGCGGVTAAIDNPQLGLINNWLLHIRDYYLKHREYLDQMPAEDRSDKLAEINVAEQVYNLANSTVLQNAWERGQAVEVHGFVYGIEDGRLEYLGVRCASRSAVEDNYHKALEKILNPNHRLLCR
T1 sequence (Q9KMP6 21-239): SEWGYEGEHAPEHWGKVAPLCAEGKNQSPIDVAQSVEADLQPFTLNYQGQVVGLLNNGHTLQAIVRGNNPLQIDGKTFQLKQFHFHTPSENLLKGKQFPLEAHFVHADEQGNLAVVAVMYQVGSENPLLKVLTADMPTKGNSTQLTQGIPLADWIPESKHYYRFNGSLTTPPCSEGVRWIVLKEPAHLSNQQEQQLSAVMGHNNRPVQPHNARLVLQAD
Sequence of VchCAγ (Q9KVT1 entry or part of it): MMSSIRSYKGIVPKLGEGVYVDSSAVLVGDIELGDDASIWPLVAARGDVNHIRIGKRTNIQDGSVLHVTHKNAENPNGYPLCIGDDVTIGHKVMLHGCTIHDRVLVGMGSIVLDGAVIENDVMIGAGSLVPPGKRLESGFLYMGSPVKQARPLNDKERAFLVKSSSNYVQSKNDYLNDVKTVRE

NS(=O)(=O)c1ccc(C(=O)N2CCCCC2)cc1 [5a, 4-(Piperidine-1-carbonyl)benzenesulfonamide]
Ki (VchCAγ): > 10 µM
Ki (VchCAα; Ki VchCAα): 0.843 µM
Ki (VchCAβ): > 10 µM

CC1CCCCN1C(=O)c1ccc(S(N)(=O)=O)cc1 (stereo not shown) [5b, 4-(2-Methylpiperidine-1-carbonyl)benzenesulfonamide]
Ki (VchCAγ): > 10 µM
Ki (VchCAα; Ki VchCAα): 0.296 µM
Ki (VchCAβ): > 10 µM

CC1CCCN(C(=O)c2ccc(S(N)(=O)=O)cc2)C1 (stereo not shown) [5c, 4-(3-Methylpiperidine-1-carbonyl)benzenesulfonamide]
Ki (VchCAγ): > 10 µM
Ki (VchCAα; Ki VchCAα): 0.529 µM
Ki (VchCAβ): > 10 µM

CC1CCN(C(=O)c2ccc(S(N)(=O)=O)cc2)CC1 [5d, 4-(4-Methylpiperidine-1-carbonyl)benzenesulfonamide]
Ki (VchCAγ): > 10 µM
Ki (VchCAα; Ki VchCAα): 0.589 µM
melting point: 212 to 213 °C
Ki (VchCAβ): > 10 µM

NS(=O)(=O)c1ccc(C(=O)N2CCC(Cc3ccccc3)CC2)cc1 [5e, 4-(4-Benzylpiperidine-1-carbonyl)benzenesulfonamide]
Ki (VchCAγ): > 10 µM
Ki (VchCAα; Ki VchCAα): 0.242 µM
melting point: 156 to 157 °C
Ki (VchCAβ): 3.75 µM

NS(=O)(=O)c1ccc(C(=O)N2CCCCCC2)cc1 [6a, 4-(Azepane-1-carbonyl)benzenesulfonamide]
Ki (VchCAγ): > 10 µM
Ki (VchCAα; Ki VchCAα): 0.275 µM
Ki (VchCAβ): > 10 µM

NS(=O)(=O)c1ccc(C(=O)N2CCC(c3ccccc3)CC2)cc1 [7a, 4-(4-Phenylpiperidine-1-carbonyl)benzenesulfonamide]
Ki (VchCAγ): > 10 µM
Ki (VchCAα; Ki VchCAα): 0.0433 µM
melting point: 222 to 223 °C
Ki (VchCAβ): 3.31 µM

NS(=O)(=O)c1ccc(C(=O)N2CCC(O)(c3ccccc3)CC2)cc1 [7b, 4-(4-Hydroxy-4-phenylpiperidine-1-carbonyl)benzenesulfonamide]
Ki (VchCAγ): > 10 µM
Ki (VchCAα; Ki VchCAα): 0.194 µM
melting point: 135 to 137 °C
Ki (VchCAβ): 3.71 µM

NS(=O)(=O)c1ccc(C(=O)N2CCC(O)(c3ccc(Cl)cc3)CC2)cc1 [7c, 4-[4-(4-Chlorophenyl)-4-hydroxypiperidine-1-carbonyl]benzenesulfonamide]
Ki (VchCAγ): > 10 µM
Ki (VchCAα; Ki VchCAα): 0.0451 µM
melting point: 215 to 217 °C
Ki (VchCAβ): 3.94 µM

NS(=O)(=O)c1ccc(C(=O)N2CCC(O)(c3ccc(Br)cc3)CC2)cc1 [7d, 4-[4-(4-Bromophenyl)-4-hydroxy-piperidine-1-carbonyl]benzenesulfonamide]
Ki (VchCAγ): > 10 µM
Ki (VchCAα; Ki VchCAα): 0.0588 µM
melting point: 219 to 220 °C
Ki (VchCAβ): 2.78 µM

N#CC1(c2ccccc2)CCN(C(=O)c2ccc(S(N)(=O)=O)cc2)CC1 [7e, 4-(4-Cyano-4-phenylpiperidine-1-carbonyl)benzenesulfonamide]
Ki (VchCAγ): > 10 µM
Ki (VchCAα; Ki VchCAα): 0.0899 µM
melting point: 285 to 286 °C
Ki (VchCAβ): 0.806 µM

CC(=O)C1(c2ccccc2)CCN(C(=O)c2ccc(S(N)(=O)=O)cc2)CC1 [7f, 4-(4-Acetyl-4-phenyl-piperidine-1-carbonyl)benzenesulfonamide]
Ki (VchCAγ): > 10 µM
Ki (VchCAα; read-out: Ki VchCAα): 0.0721 µM
Ki (VchCAβ): 6.61 µM

NS(=O)(=O)c1ccc(C(=O)N2CCN(Cc3ccccc3)CC2)cc1 [8a, 4-(4-Benzylpiperazine-1-carbonyl)benzenesulfonamide]
Ki (VchCAγ): > 10 µM
reduction of activity on VchCAα compared to parent compound 8d (VchCAα; 8a versus 8d): ten-fold reduction of activity
Ki (VchCAα; Ki VchCAα): 0.47 µM
melting point: 204 to 205 °C
Ki (VchCAβ): > 10 µM
inhibitory activity toward VchCAβ (in words) (VchCAβ): completely loss of inhibitory activity

NS(=O)(=O)c1ccc(C(=O)N2CCN(Cc3ccc(F)cc3)CC2)cc1 [8b, 4-[4-[(4-Fluorophenyl)methyl]piperazine-1-carbonyl]benzenesulfonamide]
Ki (VchCAγ): > 10 µM
Ki (VchCAα; Ki VchCAα): 0.0957 µM
melting point: 206 to 207 °C
Ki (VchCAβ): 5.01 µM
inhibitory activity toward VchCAβ (in words) (VchCAβ): moderate inhibitors

NS(=O)(=O)c1ccc(C(=O)N2CCN(C(c3ccccc3)c3ccccc3)CC2)cc1 [8c, 4-(4-Benzhydrylpiperazine-1-carbonyl)benzenesulfonamide]
Ki (VchCAγ): > 10 µM
Ki (VchCAα; Ki VchCAα): 0.275 µM
Ki (VchCAβ): 4.82 µM
inhibitory activity toward VchCAβ (in words) (VchCAβ): moderate inhibitors

NS(=O)(=O)c1ccc(C(=O)N2CCN(c3ccccc3)CC2)cc1 [8d, 4-(4-Phenylpiperazine-1-carbonyl)benzenesulfonamide]
Ki (VchCAγ): > 10 µM
Ki (VchCAα; Ki VchCAα): 0.047 µM
Ki (VchCAβ): 4.16 µM
inhibitory activity toward VchCAβ (in words) (VchCAβ): moderate inhibitors

CCOc1ccc2nc(S(N)(=O)=O)sc2c1 [EZA, ethoxzolamide]
growth of pathogen (pathogen): reduce the growth of pathogen
virulence gene expression (pathogen): decrease the virulence gene expression
